Target: T1, Slr1393g3 (GAF3 domain of cyanobacteriochrome Slr1393) (Synechocystis sp. PCC 6803, UniProt P73184)
T1 construct: isolated GAF3 domain, residues 441-596 modelled (155 amino acids stated), N-terminal His tag (tag residues seen at both ends), expressed in E. coli; one monomer per ASU, dimer in solution for Pr state
T1 sequence (P73184 441-596): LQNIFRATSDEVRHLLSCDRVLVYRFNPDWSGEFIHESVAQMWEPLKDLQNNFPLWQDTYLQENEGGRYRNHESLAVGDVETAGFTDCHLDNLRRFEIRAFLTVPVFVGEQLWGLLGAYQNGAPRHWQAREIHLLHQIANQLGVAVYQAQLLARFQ
Test: X-ray crystallography
Assay type: binding
Details: covalent; thioether bond of Cys528 to C3(1) of PCB; 5DFY in vitro assembled Pr 1.6 A; 5DFX in vivo Pr 1.8 A; 5M82 Pg (15-E) 1.86 A; 5M85 X-ray induced intermediate 2.1 A

C/C=C1/C(=C/c2[nH]c(/C=C3N=C(/C=C4\NC(=O)C(CC)=C4C)C(C)=C\3CCC(=O)O)c(CCC(=O)O)c2C)NC(=O)[C@@H]1C [PCB, phycocyanobilin]
X-ray crystallography: The PCB chromophore is covalently bound to Cys528 on helix a4

— publication doi:10.1101/155374v1, “A trapped double bond-photoisomerization intermediate in a bacterial photoreceptor” (biorxiv, 2017)
